# Patent US20260102340A1, “Therapeutic Formulation” (1000739373 Ontario Ltd., priority 2022, published 2026)
# Values joined by “and” are separate entries in the source; they are usually repeats but may differ in a detail not shown here. Identical values can stand only once. Like-named read-outs stand apart in the source and are kept apart here.
# Assays:
# [1] = 4.5 months
# Source text: A plurality of metered dose inhalers (MDIs) were filled with either the first or second therapeutic formulation. MDIs were stored either upright (Up) or inverted (in). Each MDI comprised a valve and a canister.
# [2] = HFA 134a
# physchem [3] = settings: organic solvent or mixture, Mean Drug Solubility (± standard deviation)
# physchem [4] = settings: organic solvent or mixture
# [5] = HFA 134a, Metering Valve 1908, 25° C., Up
# [6] = HFA 134a, Metering Valve 1908, 40° C. (75% RH), Down
# [7] = HFA 134a, Metering Valve 1908, 40° C. (75% RH), Up
# [8] = HFA 134a, Metering Valve 1908, Presspart Plasma Coated 14 ml C128, 5° C., Up
# [9] = HFA 134a, Metering valve 1904 (with dip tube 1906), 5° C., Up
# [10] = HFA 134a, Metering valve 1904 (with dip tube 1906), 40° C. (75% RH), Down
# [11] = HFA 134a, Metering valve 1904 (with dip tube 1906), 40° C. (75% RH), Up
# [12] = HFA 152a, Metering Valve 1908, 5° C., Up
# [13] = HFA 152a, Metering Valve 1908, 25° C., Up
# [14] = HFA 152a, Metering Valve 1908, 40° C. (75% RH), Down
# [15] = HFA 152a, Metering Valve 1908, 40° C. (75% RH), Up
# [16] = HFA 152a, Metering valve 1904 (with dip tube 1906), 40° C. (75% RH), orientation not given
# [17] = 0 %(w/w) ethanol, nicotine added 0.169 ± 0.009 %(w/w)
# [18] = 14.8 %(w/w) ethanol, nicotine added 0.703 %(w/w)
smiles,measurement,setting,value
"CN1CCC[C@H]1c1cccnc1 [Nicotine, L-Nicotine]",Nicotine % of 5° C.,[1]; [5],98 % of 5 °C
same,Nicotine can content,[1]; [5],23922.695 µg and 23527.533 µg
same,Nicotine % of 5° C.,[1]; [6],98 % of 5 °C
same,Nicotine can content,[1]; [6],23663.281 µg
same,Nicotine % of 5° C.,[1]; [7],97 % of 5 °C
same,Nicotine can content,[1]; [7],22809.747 µg and 23785.869 µg
same,Nicotine % of 5° C.,[1]; [8],100 % of 5 °C
same,Nicotine can content,[1]; [8],24166.562 µg and 24126.474 µg
same,Nicotine % of 5° C.,[1]; [9],100 % of 5 °C
same,Nicotine can content,[1]; [9],23891.217 µg and 23628.856 µg
same,Nicotine % of 5° C.,[1]; [10],97 % of 5 °C
same,Nicotine can content,[1]; [10],23102.878 µg and 23079.598 µg
same,Nicotine % of 5° C.,[1]; [11],96 % of 5 °C
same,Nicotine can content,[1]; [11],22360.125 µg and 23044.004 µg
same,Nicotine % of 5° C.,[1]; [12],100 % of 5 °C
same,Nicotine can content,[1]; [12],31626.434 µg and 30855.835 µg
same,Nicotine % of 5° C.,[1]; [13],100 % of 5 °C
same,Nicotine can content,[1]; [13],31592.559 µg and 30786.35 µg
same,Nicotine % of 5° C.,[1]; [14],98 % of 5 °C
same,Nicotine can content,[1]; [14],30939.368 µg and 30153.5 µg
same,Nicotine % of 5° C.,[1]; [15],98 % of 5 °C
same,Nicotine can content,[1]; [15],30982.764 µg and 30318.689 µg
same,Nicotine % of 5° C.,[1]; [16],97 % of 5 °C
same,Nicotine can content,[1]; [16],30395.997 µg and 30048.645 µg
same,Solubility in 50:50 mixtures of propellants compared with single propellants,50:50 mixtures of propellants,higher solubility than either propellant alone
same,"Solubility, equivalent % by mass",HFA 152a,0.56 % by mass
same,Effect of addition of ethanol on solubility,[2],greatly improved
same,Detected/Added *100%,[2]; [17],99 ± 11%
same,Nicotine Detected in Solution (by HPLC) % (w/w),[2]; [17],0.168 ± 0.026 % (w/w)
same,Nicotine Detected in Solution (by HPLC) μg per 50 μl,[2]; [17],104 ± 15 μg per 50 μl
same,Detected/Added *100%,[2]; [18],108 ± 2%
same,Nicotine Detected in Solution (by HPLC) % (w/w),[2]; [18],0.760 ± 0.013 % (w/w)
same,Nicotine Detected in Solution (by HPLC) μg per 50 μl,[2]; [18],421 ± 10 μg per 50 μl
same,solubility,physchem [3]; 50:50 HFA 134a/HFA 152a,85.8 ± 3.2 µg/mL
same,solubility,physchem [3]; 50:50 HFA 134a/HFO 1234ze,62.3 ± 4.4 µg/mL
same,solubility,physchem [3]; HFA 134a,38.5 ± 1.6 µg/mL
same,solubility,physchem [3]; HFA 152a,50.8 ± 2.9 µg/mL
same,solubility,physchem [3]; HFA 227ea,19.8 ± 4.9 µg/mL
same,solubility,physchem [3]; HFO 1234ze,41.5 ± 0.8 µg/mL
same,solubility,physchem [4],≥ 10 µg/mL
